Laboratory results reported in patent US6649621B2, “Prevention or reversal of sensorineural hearing loss (SNHL) through biologic mechanisms” (The United States of America as represented by the …, priority 1997, dated 2003).
“Also recorded” adds a separate entry of the source.

Columns and labels:
[1] = system: noise-induced cochlear damage; conditions: cited from earlier work
[2] = system: idiopathic sensorineural hearing loss; assay: Treatment of individuals with sudden idiopathic sensorineural hearing loss (oral conventional therapy, then topical round window microcatheter); type: in vivo, human; conditions: one patient each
Description: FIG. 7 is a bar graph comparing the speech reception threshold values of an individual who suffered an idiopathic sensorineural hearing loss before and after administration of a topical rescue agent.
FIG. 8 is a bar graph comparing the word discrimination scores of an individual who suffered an idiopathic sensorineural hearing loss before and after administration of a topical rescue agent.
FIG. 9 is a bar graph comparing the speech reception threshold values of another individual who suffered an idiopathic sensorineural hearing loss before and after administration of a topical rescue agent.
FIG. 10 is a bar graph comparing the word discrimination scores of another individual who suffered an idiopathic sensorineural hearing loss before and after administration of a topical rescue agent.
A Army Sergeant noted the sudden onset of a severe hearing loss and tinnitus in their left ear. They were initially given one week of conventional therapy with oral prednisone and a trial of close observation. They had no response to this treatment regimen and two weeks after experiencing the hearing loss they were treated with topical methylprednisolone. The topical methylprednisolone was administered in a round window microcatheter (IntraEar Corporation, Denver, Colo.) via a method developed by our group. The methylprednisolone was given in a concentration of 125 mg/ml. […]

[3] = system: noise induced hearing loss; assay: Oral rescue agent in an individual with noise induced hearing loss; type: in vivo, human; conditions: 70 mg/kg by mouth, then 35 mg/kg QID for seven days; one patient
Description: FIG. 5 is a bar graph comparing the speech reception threshold values of an individual who suffered noise induced hearing loss before and after administration of an oral rescue agent. FIG. 6 is a bar graph comparing the word discrimination scores of an individual who suffered noise induced hearing loss before and after administration of an oral rescue agent. An Army Infantryman lost […] hearing protection in one ear during a live fire training evolution. […] received treatment in the form of ant initial dose of 70 mg/kg of L-N-acetyl cysteine (LNAC) by mouth followed by 35 mg/kg LNAC by mouth QID for seven days.

[4] = system: inner and outer hair cells; assay: R-PIA on round window membrane, chinchilla 4 kHz octave band noise, inner and outer hair cell losses; type: in vivo; conditions: 10^-4 M on round window membrane
Description: FIG. 1 is a series of graphs which depicts our experimental work with R-PIA in a chinchilla model of SNHL. A 10^−4 M solution of R-PIA was placed on the round window membrane of chinchillas for thirty minutes and saline was placed as a control on round window membrane in the opposite-ear. After thirty minutes the fluids were removed, the surgical sites closed and the animals were exposed to 4 kHz octave band noise at 105 dB SPL for thirty minutes. […] The details of this study have been submitted and recently accepted for publication in a peer-reviewed journal (5).

[5] = system: chinchilla model of SNHL; assay: R-PIA on round window membrane, chinchilla 4 kHz octave band noise, evoked potential hearing thresholds; type: in vivo
Description: FIG. 1 is a series of graphs which depicts our experimental work with R-PIA in a chinchilla model of SNHL. A 10^−4 M solution of R-PIA was placed on the round window membrane of chinchillas for thirty minutes and saline was placed as a control on round window membrane in the opposite-ear. After thirty minutes the fluids were removed, the surgical sites closed and the animals were exposed to 4 kHz octave band noise at 105 dB SPL for thirty minutes.

[6] = system: noise induced permanent hearing loss; assay: R-PIA on round window membrane, impulse noise, frequency specific evoked potential threshold shifts; type: in vivo, Chinchilla; conditions: out to 20 days post-exposure
Description: FIGS. 3 & 4 illustrate data from Chinchilla exposed to simulated M-16 rifle fire impulse noise (50-salvo volleys). These animals received R-PIA treatment as outlined above (by the application of a dilute (10^−4 molar) solution of R-PIA directly onto the round window membrane for thirty minutes) with saline as a control on the round window membrane of the opposite ear. FIGS. 3 and 4 depict the percentage of missing inner and outer hair cells quantified in the inner ears of animals euthanized after the noise exposure. […] The results of both these tests show the frequency specific evoked potential threshold shifts from the same Chinchilla prior to and after noise exposure (out to 20 days post-exposure).

[7] = system: inner and outer hair cells; assay: R-PIA on round window membrane, simulated M-16 impulse noise, missing hair cells; type: in vivo, Chinchilla; conditions: 10^-4 M on round window membrane 30 min, 50-salvo volleys, vs saline control ear

## CCCCS(=N)(=O)CCC(N)C(=O)O (stereo not drawn) [BSO, buthionine sulfoximine]
[1]; inhibition of GSH synthesis
  hair cell damage and hearing loss associated with noise exposure: enhances the hair cell damage and hearing loss associated with noise exposure

## C[C@]12C=CC(=O)C=C1CC[C@@H]1[C@@H]2C(=O)C[C@@]2(C)[C@H]1CC[C@]2(O)C(=O)CO [prednisone]
[2]
  response of sudden hearing loss to conventional therapy: no response

## CC(=O)N[C@@H](CS)C(=O)O [LNAC, L-N-acetyl cysteine]
[3]
  speech reception threshold: complete recovery
  word discrimination ability: complete recovery

## Oc1ncnc2[nH]ncc12 [allopurinol]
[1]; given before and during damaging noise exposure
  cochlear action potential and cochlear microphonic threshold shifts: attenuate cochlear action potential and cochlear microphonic threshold shifts

## C[C@H](Cc1ccccc1)Nc1ncnc2c1ncn2[C@@H]1O[C@H](CO)[C@@H](O)[C@H]1O [R-PIA, R-N6-Phenylisopropyl adenosine]
[4]; both conditions
  inner hair cell losses: minimal
[4]; vs saline control ears
  reduction in outer hair cell loss: fourfold reduction; also recorded: four-fold reduction
[5]; 10^-4 M on round window membrane 30 min, vs saline control ears
  permanent hearing threshold shift / permanent hearing loss: significantly less permanent hearing threshold shift in R-PIA treated ears compared to saline treated ears at 4, 8 and 16 kHz; also recorded: significant reduction in permanent hearing loss
[5]; 10^-4 M on round window membrane 30 min before 4 kHz octave band noise 105 dB SPL, days 0, 1, 2, 4 and 20, vs saline ear
  recovery of hearing thresholds: faster and more complete recovery of hearing thresholds
[6]; vs ears that received no treatment
  permanent hearing loss: reduction of permanent hearing loss in R-PIA treated ears as compared to ears that received no treatment
[6]; vs saline treated (control) ears, variety of frequencies
  permanent hearing loss: reduction of permanent hearing loss in R-PIA treated ears as compared to saline treated (control) ears
[7]
  inner and outer hair cell loss: significant reduction of inner and outer hair cell loss
